In PubChem BioAssay AID1963429 (Molecular Pharmacology Branch, DTP, NCI, 2024):

System: 126254-015-R-J1-PDC complex spheroid growth, % test/control
Assay: Anticancer human tumor 126254-015-R-J1-PDC patient-derived soft tissue sarcoma cell line growth inhibition [Asc]
Details: for IC50: curve of first compound; for viability, T/C: stronger effect = lower value; active means viability on the fitted dose curve at most 10% of control; inactive means the rest
Procedure, shortened: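 Tumor cells were grown as multicellular spheroids with stromal HUVEC and mesenchymal stem cells and treated singly or in combination. Concentrations fell in half-log steps from the clinical Cmax, or from 10 microM where none was known.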
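Further: spheroids exposed to compound for seven days.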
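Wherever viability, T/C is given: 100% = DMSO vehicle control wells.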

CCN1C(C(=O)NC23CCC(C(=O)O)(CC2)CC3)C(c2cccc(Cl)c2F)C2(C(=O)Nc3cc(Cl)ccc32)C12CCCCC2 (stereo not given) + CNC(C)C(=O)NC1CN(S(=O)(=O)c2cccc(S(=O)(=O)N3CCC4CCC(C(=O)NC(c5ccccc5)c5ccccc5)N4C(=O)C(NC(=O)C(C)NC)C3)c2)CCC2CCC(C(=O)NC(c3ccccc3)c3ccccc3)N2C1=O
inactive: viability, T/C (second compound 0.01 µM, first compound 0.00949 µM) 88.3% | viability, T/C (second compound 0.01 µM, first compound 0.03 µM) 86.9% | viability, T/C (second compound 0.01 µM, first compound 0.0949 µM) 87.7% | viability, T/C (second compound 0.01 µM, first compound 0.3 µM) 77.1% | viability, T/C (second compound 0.01 µM, first compound 0.949 µM) 79.8% | viability, T/C (second compound 0.01 µM, first compound 3 µM) 81.2% | viability, T/C (second compound 0.0316 µM, first compound 0.00949 µM) 74.4% | viability, T/C (second compound 0.0316 µM, first compound 0.03 µM) 69.4% | viability, T/C (second compound 0.0316 µM, first compound 0.0949 µM) 70.2% | viability, T/C (second compound 0.0316 µM, first compound 0.3 µM) 74.5% | viability, T/C (second compound 0.0316 µM, first compound 0.949 µM) 66.4% | viability, T/C (second compound 0.0316 µM, first compound 3 µM) 72.3% | viability, T/C (second compound 0.1 µM, first compound 0.00949 µM) 66% | viability, T/C (second compound 0.1 µM, first compound 0.03 µM) 70% | viability, T/C (second compound 0.1 µM, first compound 0.0949 µM) 67.4% | viability, T/C (second compound 0.1 µM, first compound 0.3 µM) 64.6% | viability, T/C (second compound 0.1 µM, first compound 0.949 µM) 67.7% | viability, T/C (second compound 0.1 µM, first compound 3 µM) 66.5% | viability, T/C (second compound 0.316 µM, first compound 0.00949 µM) 54.8% | viability, T/C (second compound 0.316 µM, first compound 0.03 µM) 68% | viability, T/C (second compound 0.316 µM, first compound 0.0949 µM) 60.7% | viability, T/C (second compound 0.316 µM, first compound 0.3 µM) 57.2% | viability, T/C (second compound 0.316 µM, first compound 0.949 µM) 61% | viability, T/C (second compound 0.316 µM, first compound 3 µM) 73% | viability, T/C (second compound 1 µM, first compound 0.00949 µM) 52.8% | viability, T/C (second compound 1 µM, first compound 0.03 µM) 60.8% | viability, T/C (second compound 1 µM, first compound 0.0949 µM) 61.1% | viability, T/C (second compound 1 µM, first compound 0.3 µM) 64% | viability, T/C (second compound 1 µM, first compound 0.949 µM) 61.5% | viability, T/C (second compound 1 µM, first compound 3 µM) 63.2%
> 3 µM: IC50 (second compound 0.01 µM) | IC50 (second compound 0.0316 µM) | IC50 (second compound 0.1 µM) | IC50 (second compound 0.316 µM) | IC50 (second compound 1 µM)
